Experimental data reported in US9175013B2, “Fused aminodihydrothiazine derivatives” (Eisai R&D Management Co., Ltd., priority 2011, dated 2015).
Read-outs that look alike come from different tables or passages of the source.

Assay: Rat in vivo CNS penetration: plasma, brain and CSF concentrations by LC-MS/MS
Settings: male, Sprague Dawley, po, 10 mg/kg, 10 mg/kg p.o.; for concentration at 2 h / Kp at 2 h: 2 h post-dose; for concentration at 4 h / Kp at 4 h: 4 h post-dose; for concentration at 6 h / Kp at 6 h: 6 h post-dose; for concentration at 8 h / Kp at 8 h: 8 h post-dose
Experimental: Rat In Vivo CNS Penetration Male Sprague Dawley rats were acquired from Charles River UK Ltd. (Margate, UK) and housed according to UK Home Office guidelines. Drugs were made up to the appropriate concentrations in 0.5% methyl cellulose. Animals were dosed orally (2 mL/kg) by gavage at the doses outlined in Tables 1 to 4 below. At the time points post-dosing, specified in the Tables 1 to 4 below the animals were administered an i.p. injection of sodium pentobarbitone (approximately 330 mg/kg for terminal anaesthesia). Using a guillotine, the animals were decapitated and trunk blood collected into 15 ml Falcon tubes containing 100 IU heparin. Blood was vortexed followed by centrifugation at 6000 rpm, 4° C. for 5 minutes. Plasma was collected for DMPK and ELISA assays and stored at −80° C. until use. Brains were dissected out and divided along the midline, weighed and stored at −80° C. until further use. Method for Analysis of Plasma, Brain and CSF Samples Test compound was prepared as a 1 mg free base/mL solution in DMSO, vortexed and sonicated for 5 min. The 1 mg/mL DMSO solution was diluted to 10 and 30 μg/mL acetonitrile stocks, by adding 10 μL to 990 μL acetonitrile and 30 μL to 970 acetonitrile, respectively. The 10 and 30 μg/mL acetonitrile stocks were then serially diluted 1:9 (v/v) (100 μL stock into 900 μL acetonitrile) to give the following solutions: 0.003, 0.01, 0.03, 0.1, 0.3, 1, 3, 10 and 30 μg/mL acetonitrile. Control male Sprague Dawley rat plasma and the study plasma samples were stored at −80° C. until the day of analysis when they were thawed at room temperature. Control plasma was centrifuged (2,000 g for 10 min) and aliquoted (90 μL) into eppendorf tubes for preparation of standards and blank samples. Study samples were previously aliquoted (100 μL) into eppendorf tubes immediately following collection of the plasma. An aliquot (10 μL) of the appropriate acetonitrile stock was added to the control plasma (to give a final volume of 100 μL) to give the required calibration standards covering the range 1-3000 ng/mL. Double blank and blank samples were prepared by adding 10 μL of acetonitrile to 90 μL of blank plasma. Control male Sprague Dawley rat brain and the study brain samples were weighed after collection and stored at −80° C. until the day of analysis when they were thawed at room temperature. Once thawed brains were diluted with water (4 mL per gram of tissue) and homogenised using a mechanical homogeniser. An aliquot (100 μL) of each study sample was taken into Micronics tubes ready for analysis and sufficient aliquots (90 μL) of control brain homogenate prepared for preparation of standards and blanks. An aliquot (10 μL) of the appropriate acetonitrile stocks was added to the control brain homogenate (to give a final volume of 100 μL) to give the required calibration standards covering the range 1.5-5000 ng/g. Double blank and blank samples were prepared by adding 10 μL of acetonitrile to 90 μL of blank brain homogenate. Each plasma and brain homogenate sample, standard and blank (100 μL) was extracted with an aliquot (300 μL) of acetonitrile (containing 0.1% formic acid and 100 ng/mL of an appropriate internal standard). Double blanks were extracted with an aliquot (300 μL) of acetonitrile containing 0.1% formic acid). All samples, standards and blanks were then vortex mixed and centrifuged (2000 g for 15 min). An aliquot (50 μL) of the resulting supernatant was then taken into a 2 mL 96-deep well plate and diluted with acetonitrile:water (50:50 v/v) (150 μL) ready for analysis by a specific LC-MS/MS method. Control male Sprague Dawley rat CSF and the study CSF samples were stored at −80° C. until the day of analysis when they were thawed at room temperature. An aliquot (50 μL) of each study sample was taken into Micronics tubes ready for analysis and sufficient aliquots (45 μL) of control CSF prepared for preparation of standards and blanks. […]

[1] = CSF, CSF concentration, read-out: [CSF]
[2] = brain, total brain concentration, read-out: [Br]
[3] = brain, unbound brain, [Br] x Br Fu, read-out: [Bru]
[4] = plasma, total plasma concentration, read-out: [Pl]
[5] = plasma, unbound plasma, [Pl] x Pl Fu, read-out: [Plu]

| Compound | concentration at 2 h [1] [nM] | Kp at 2 h (CSF, read-out: CSF:Plu) | concentration at 4 h [1] [nM] | Kp at 4 h (CSF, read-out: CSF:Plu) | concentration at 6 h [1] [nM] | Kp at 6 h (CSF, read-out: CSF:Plu) | concentration at 8 h [1] [nM] | Kp at 8 h (CSF, read-out: CSF:Plu) | Kp at 2 h (brain, read-out: Brtot:Pltot) | Kp at 2 h (brain, read-out: Bru:Plu) | concentration at 2 h [2] [nM] | concentration at 2 h [3] [nM] | Kp at 4 h (brain, read-out: Brtot:Pltot) | Kp at 4 h (brain, read-out: Bru:Plu) | concentration at 4 h [2] [nM] | concentration at 4 h [3] [nM] | Kp at 6 h (brain, read-out: Brtot:Pltot) | Kp at 6 h (brain, read-out: Bru:Plu) | concentration at 6 h [2] [nM] | concentration at 6 h [3] [nM] | also measured |
| --- | --- | --- | --- | --- | --- | --- | --- | --- | --- | --- | --- | --- | --- | --- | --- | --- | --- | --- | --- | --- | --- |
| COc1cnc(C(=O)Nc2cc(F)c(F)c([C@]34CO[C@H](CF)[C@H]3CSC(N)=N4)c2)cn1 [Example 4, N-(3-((4aS,5S,7aS)-2-amino-5-(fluoromethyl)-4a,5,7,7a-tetrahydro-4H-furo[3,4-d][1,3]thiazin-7a-yl)-4,5-difluorophenyl)-5-methoxypyrazine-2-carboxamide] | 33 | 0.6 | 40 | 0.6 | 13 | 0.6 | 8 | 0.6 | 3.8 | 0.6 | 1470 | 31 | 3.4 | 0.5 | 1620 | 34 | 3.8 | 0.6 | 609 | 13 | Kp at 8 h (brain, read-out: Brtot:Pltot): 3.7; Kp at 8 h (brain, read-out: Bru:Plu): 0.6; concentration at 8 h [2]: 385 nM; concentration at 8 h [3]: 8 nM; concentration at 2 h [4]: 392 nM; concentration at 2 h [5]: 51 nM; concentration at 4 h [4]: 482 nM; concentration at 4 h [5]: 63 nM; concentration at 6 h [4]: 162 nM; concentration at 6 h [5]: 21 nM; concentration at 8 h [4]: 105 nM; concentration at 8 h [5]: 14 nM |
| COc1cnc(C(=O)Nc2ccc(F)c([C@]34CO[C@H](C(F)F)[C@H]3CSC(N)=N4)c2)cn1 [Example 3, N-(3-((4aS,5S,7aS)-2-amino-5-(difluoromethyl)-4a,5,7,7a-tetrahydro-4H-furo[3,4-d][1,3]thiazin-7a-yl)-4-fluorophenyl)-5-methoxypyrazine-2-carboxamide] | 34 | 0.6 | 16 | 0.5 | 15 | 0.5 | 9 | 0.7 | 2.8 | 0.7 | 1090 | 38 | 2.5 | 0.6 | 576 | 20 | 2.4 | 0.6 | 561 | 20 | Kp at 8 h (brain, read-out: Brtot:Pltot): 3; Kp at 8 h (brain, read-out: Bru:Plu): 0.7; concentration at 8 h [2]: 257 nM; concentration at 8 h [3]: 9 nM; concentration at 2 h [4]: 385 nM; concentration at 2 h [5]: 55 nM; concentration at 4 h [4]: 226 nM; concentration at 4 h [5]: 32 nM; concentration at 6 h [4]: 232 nM; concentration at 6 h [5]: 33 nM; concentration at 8 h [4]: 85 nM; concentration at 8 h [5]: 12 nM |
